Data from PubChem BioAssay (NCI).
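Dose response: 5 concentrations. Exposure: 48 h. Format: 96-well plates. Endpoint: linear interpolation; highest concentration if not reached. GI50: concentration for 50% inhibition of growth. The concentration for full growth arrest is given as TGI.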

What was measured:
Experiment in all cases: NCI-60 cell line screen, 48 h
RPMI-8226 leukemia = system: RPMI-8226 leukemia
TK-10 renal = system: TK-10 renal
HS 578T breast = system: HS 578T breast
NCI/ADR-RES ovarian = system: NCI/ADR-RES ovarian
T-47D breast = system: T-47D breast
KM12 colon = system: KM12 colon
UACC-257 melanoma = system: UACC-257 melanoma
HCT-15 colon = system: HCT-15 colon
BT-549 breast = system: BT-549 breast
HL-60(TB) leukemia = system: HL-60(TB) leukemia

## Cc1ccc(NC(=O)c2ccccc2C(=O)O)cc1C
RPMI-8226 leukemia
  TGI: > 100 µM
TK-10 renal
  TGI: > 100 µM
HS 578T breast
  TGI: > 100 µM
NCI/ADR-RES ovarian
  TGI: > 100 µM
T-47D breast
  TGI: > 100 µM
KM12 colon
  TGI: > 100 µM
UACC-257 melanoma
  TGI: > 100 µM
HCT-15 colon
  TGI: > 100 µM
BT-549 breast
  TGI: > 100 µM

## Cc1ccc(S(=O)OC2C3CC4CC(C3)CC2C4)cc1 (centres undefined)
RPMI-8226 leukemia
  TGI: > 100 µM
TK-10 renal
  TGI: > 100 µM
KM12 colon
  TGI: > 100 µM
UACC-257 melanoma
  TGI: > 100 µM
HCT-15 colon
  TGI: > 100 µM
HL-60(TB) leukemia
  TGI: > 100 µM

## COc1ccc(-c2cc(=O)c3c(OC)c(OC)c(OC)c(OC)c3o2)cc1
RPMI-8226 leukemia
  TGI: > 100 µM
TK-10 renal
  TGI: > 100 µM
HS 578T breast
  TGI: > 100 µM
NCI/ADR-RES ovarian
  TGI: > 100 µM
T-47D breast
  TGI: 59.5 µM
UACC-257 melanoma
  TGI: > 100 µM
HCT-15 colon
  TGI: > 100 µM
BT-549 breast
  TGI: > 100 µM
HL-60(TB) leukemia
  TGI: > 100 µM

## COc1ccc2c(c1)OC1=C(C(=O)OC1)C2c1cc(OC)c2c(c1)OCO2 (centres undefined)
RPMI-8226 leukemia
  GI50: 48.7 nM
  TGI: > 100 µM
TK-10 renal
  GI50: 0.268 µM
  TGI: > 100 µM
HS 578T breast
  GI50: 34.8 nM
  TGI: > 100 µM
KM12 colon
  GI50: 30.4 nM
  TGI: 0.416 µM
UACC-257 melanoma
  GI50: > 46.1 µM
  TGI: > 100 µM
HCT-15 colon
  GI50: 46.4 nM
  TGI: > 100 µM
BT-549 breast
  TGI: > 100 µM
HL-60(TB) leukemia
  GI50: 34.2 nM

## CN(C)c1ccc(/C=C2\C=Cc3ccccc32)cc1
RPMI-8226 leukemia
  TGI: > 100 µM
TK-10 renal
  TGI: > 100 µM
KM12 colon
  TGI: > 100 µM
HCT-15 colon
  TGI: > 100 µM
HL-60(TB) leukemia
  TGI: > 100 µM

## COc1cc2nc(NCCCCCNC(=O)c3ccco3)nc(N)c2cc1OC
RPMI-8226 leukemia
  TGI: > 100 µM
TK-10 renal
  TGI: > 100 µM
KM12 colon
  TGI: 62.4 µM
UACC-257 melanoma
  TGI: 38.1 µM
HCT-15 colon
  TGI: > 100 µM
HL-60(TB) leukemia
  TGI: 43.3 µM

## C/C=C(\C)c1cc(O)c(C)c2c1Oc1cc(O)c(Cl)c(C)c1C(=O)O2
TK-10 renal
  TGI: 30.4 µM
KM12 colon
  TGI: 47.6 µM
UACC-257 melanoma
  TGI: 44.2 µM
HL-60(TB) leukemia
  TGI: 67.3 µM

## COC(=O)C(C)(C)N=CN(C)C
TK-10 renal
  TGI: > 100 µM
KM12 colon
  TGI: > 100 µM
UACC-257 melanoma
  TGI: > 100 µM
HCT-15 colon
  TGI: > 100 µM
HL-60(TB) leukemia
  TGI: > 100 µM

## O=c1[nH]cnc2c(C3NC(CO)C(O)C3O)c[nH]c12 (centres undefined)
RPMI-8226 leukemia
  GI50: > 100000 nM
  TGI: > 100 µM
TK-10 renal
  GI50: > 100 µM
  TGI: > 100 µM
HS 578T breast
  GI50: > 100000 nM
  TGI: > 100 µM
NCI/ADR-RES ovarian
  GI50: > 100 µM
  TGI: > 100 µM
T-47D breast
  GI50: > 100 µM
  TGI: > 100 µM
KM12 colon
  GI50: > 100000 nM
  TGI: > 100 µM
UACC-257 melanoma
  GI50: > 100 µM
  TGI: > 100 µM
HCT-15 colon
  GI50: > 100000 nM
  TGI: > 100 µM
BT-549 breast
  GI50: > 100000 nM
  TGI: > 100 µM

## Cc1cc(N(CCC#N)CCC#N)ccc1/C=C1/N=C(c2ccccc2)N(N)C1=O
RPMI-8226 leukemia
  TGI: > 100 µM
TK-10 renal
  TGI: > 100 µM
KM12 colon
  TGI: > 100 µM
UACC-257 melanoma
  TGI: > 100 µM
HCT-15 colon
  TGI: > 100 µM
HL-60(TB) leukemia
  TGI: > 100 µM

## COc1ccc(C(=O)N2c3ccccc3Sc3ccccc32)c(OC)c1
RPMI-8226 leukemia
  GI50: 523 nM
  TGI: 29.9 µM
TK-10 renal
  GI50: > 100 µM
  TGI: > 100 µM
HS 578T breast
  GI50: 482 nM
  TGI: > 100 µM
NCI/ADR-RES ovarian
  GI50: 0.4 µM
  TGI: 42.1 µM
KM12 colon
  GI50: 438 nM
  TGI: > 100 µM
UACC-257 melanoma
  GI50: 27.8 µM
  TGI: > 100 µM
HCT-15 colon
  GI50: 464 nM
  TGI: > 100 µM
BT-549 breast
  GI50: 659 nM
  TGI: > 100 µM
HL-60(TB) leukemia
  GI50: 297 nM
  TGI: 18.5 µM

## CN1CCN(CC(O)COc2c(Br)c(Br)c(Br)c3c2OC(C)(C)C3)CC1 (centres undefined)
RPMI-8226 leukemia
  GI50: 1800 nM
  TGI: 4.44 µM
TK-10 renal
  GI50: 15 µM
  TGI: 37.7 µM
HS 578T breast
  GI50: 10400 nM
  TGI: 42.7 µM
NCI/ADR-RES ovarian
  GI50: 15.9 µM
  TGI: 49 µM
T-47D breast
  GI50: 12.6 µM
  TGI: 38.5 µM
KM12 colon
  GI50: 6060 nM
  TGI: 43.2 µM
HCT-15 colon
  GI50: 2790 nM
  TGI: 6.16 µM
BT-549 breast
  GI50: 10600 nM
  TGI: 26.4 µM
HL-60(TB) leukemia
  GI50: 4570 nM
  TGI: 18 µM

## CCOC1=C2N=C(Cc3ccccc3F)N=C2C(=O)c2ccccc21
RPMI-8226 leukemia
  TGI: > 100 µM
KM12 colon
  TGI: > 100 µM
UACC-257 melanoma
  TGI: > 100 µM
HCT-15 colon
  TGI: > 100 µM
HL-60(TB) leukemia
  TGI: > 100 µM

## CNS(=O)(=O)NNS(=O)(=O)c1ccc(Cl)cc1
RPMI-8226 leukemia
  TGI: > 100 µM
TK-10 renal
  TGI: > 100 µM
KM12 colon
  TGI: > 100 µM
UACC-257 melanoma
  TGI: > 100 µM
HL-60(TB) leukemia
  TGI: > 100 µM

## C=C1CCC2[C@@H](CCC3[C@]2(C)CCC[C@]3(C)C(=O)OC)[C@@H]1CC=O (some centres undefined)
RPMI-8226 leukemia
  GI50: 19100 nM
  TGI: 57.6 µM
TK-10 renal
  GI50: 31 µM
  TGI: 77.5 µM
KM12 colon
  GI50: 39300 nM
  TGI: > 100 µM
UACC-257 melanoma
  TGI: 68.9 µM
HCT-15 colon
  TGI: 81.2 µM
HL-60(TB) leukemia
  TGI: 55.9 µM

## CCCCCCCCCCCCCP(=O)(O)NCC(N)=O
RPMI-8226 leukemia
  TGI: > 100 µM
TK-10 renal
  TGI: > 100 µM
KM12 colon
  TGI: > 100 µM
UACC-257 melanoma
  TGI: > 100 µM
HCT-15 colon
  TGI: > 100 µM
HL-60(TB) leukemia
  TGI: 67.3 µM

## CN1COc2c(n(C)c(=O)[nH]c2=O)C1
RPMI-8226 leukemia
  TGI: 90.8 µM
TK-10 renal
  TGI: > 100 µM
KM12 colon
  TGI: > 100 µM
UACC-257 melanoma
  TGI: > 100 µM
HCT-15 colon
  TGI: > 100 µM
HL-60(TB) leukemia
  TGI: > 80.3 µM

## CC1(C)OCC(C(O)C2OC(C)(C)OC2/C=N\O)O1 (centres undefined)
RPMI-8226 leukemia
  TGI: > 100 µM
TK-10 renal
  TGI: > 100 µM
KM12 colon
  TGI: > 100 µM
UACC-257 melanoma
  TGI: > 100 µM
HL-60(TB) leukemia
  TGI: > 100 µM

## CCCCCCN(N)C(=O)CC#N
RPMI-8226 leukemia
  TGI: 58.5 µM
TK-10 renal
  TGI: > 100 µM
KM12 colon
  TGI: > 100 µM
UACC-257 melanoma
  TGI: > 100 µM
HCT-15 colon
  TGI: > 100 µM

## O=C(O)/C(Cl)=C(\Cl)C(=O)Nc1ccc(Cl)c(Cl)c1Cl
RPMI-8226 leukemia
  TGI: 88.3 µM
TK-10 renal
  TGI: 30.9 µM
KM12 colon
  TGI: 36.6 µM
UACC-257 melanoma
  TGI: 36.2 µM
HCT-15 colon
  TGI: 34.8 µM
HL-60(TB) leukemia
  TGI: 45.4 µM

## COc1ccc(C(Cl)=C(c2ccc(OCCN(C)C)cc2)c2ccc(OCCN(C)C)cc2)cc1
RPMI-8226 leukemia
  TGI: 3.83 µM
TK-10 renal
  TGI: 31.1 µM
KM12 colon
  TGI: 2.83 µM
HCT-15 colon
  TGI: 3.58 µM
HL-60(TB) leukemia
  TGI: 3.65 µM

## CN1CCN(Cc2ccc(NC(=O)c3[nH]ncc3Nc3ncnc4sc5c(c34)CCCC5)cc2)CC1
RPMI-8226 leukemia
  GI50: 370 nM
  TGI: 1.04 µM
TK-10 renal
  GI50: 1.14 µM
  TGI: 2.4 µM
HS 578T breast
  GI50: 151 nM
  TGI: 1.74 µM
T-47D breast
  GI50: 0.457 µM
  TGI: 13.5 µM
KM12 colon
  GI50: 222 nM
  TGI: 1.29 µM
UACC-257 melanoma
  GI50: 1.21 µM
  TGI: 3.29 µM
HCT-15 colon
  GI50: 197 nM
  TGI: 1.28 µM
BT-549 breast
  GI50: 1230 nM
  TGI: 2.65 µM
HL-60(TB) leukemia
  GI50: 269 nM
  TGI: 0.804 µM

## CC1(C)C2CCC13CS(=O)(=O)N1O[C@]13C(=O)O2 (some centres undefined)
RPMI-8226 leukemia
  TGI: > 100 µM
TK-10 renal
  TGI: > 100 µM
KM12 colon
  TGI: > 100 µM
UACC-257 melanoma
  TGI: > 100 µM
HCT-15 colon
  TGI: > 100 µM
HL-60(TB) leukemia
  TGI: > 100 µM
